6 compounds from US5945436A, “Pyridylmethyl nitriles, amides and thioamides useful as fungicides” (Uniroyal Chemical Company, Inc., priority 1997, dated 1999) can be followed below.

The test system of one assay is Scierotinia minor. Description: Fungal growth inhibition, treated disc on agar (SCL MIN). It is filed as cell-based. As to conditions: disc dipped in 500 mg/l, 29° C., read-out: Percent Growth Inhibition, SCL MIN.
A further assay has as its system Erysiphe polygoni. Description: Powdery mildew on pinto bean, foliar application (ERY POL). It is filed as in vivo. To be noted: Erysiphe polygoni, similar procedure as barley (1,000 mg/l), read-out: Percent Reduction of Disease, ERY POL. A digest of the protocol:
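Pinto bean plants sprayed with compound emulsion (acetone or inert solvent, TWEEN 20, water) at 1,000 mg/l, or left unsprayed, dried, then inoculated with Erysiphe polygoni spores in a 21° C greenhouse. Disease scored; percent control computed against untreated controls.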

A further assay relates to Helminthosporium sativum. Description: Barley spot blotch, foliar treatment (HEL SAT). It is filed as in vivo. To be noted: Helminthosporium, foliar, 216 h, foliar, 1,000 mg/l, read-out: Percent Reduction of Disease, HEL SAT. Put shortly:
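Percent control of H. sativum blotch was computed after foliar spraying of six-day-old "Robust" barley (10 plants/pot) at 1,000 mg/l versus unsprayed pots. Spore inoculation followed spraying, then 24 h in a 99% humidity chamber and eight days in a 21° C greenhouse.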

For a further assay, the system named is Rhizoctonia solani. Description: Fungal growth inhibition, treated disc on agar (RHI SOL). The assay is classed as cell-based. To be noted: Rhizoctonia solani, disc dipped in 500 mg/l, 29° C., read-out: Percent Growth Inhibition, RHI SOL.
The subject of the next assay is Pyricularia oryzae. Description: whole plant or invertebrate. As to conditions: Pyricularia oryzae, in Hordeum vulgare, foliar, 216 h, read-out: Percent Reduction of Disease, PYR ORY, barley, foliar, 1,000 mg/l. The assay is classed as in vivo.
A further assay has as its system Pythium ultimum. Briefly: Fungal growth inhibition, treated disc on agar (PYT ULT). The assay is classed as cell-based. As to conditions: Globisporangium ultimum, disc dipped in 500 mg/l, 29° C., read-out: Percent Growth Inhibition, PYT ULT.
A further assay has as its system Colletotrichum gossypii. Description: Fungal growth inhibition, treated disc on agar (COL GOS). It is filed as cell-based. As to conditions: Colletotrichum gossypii, disc dipped in 500 mg/l, 29° C., read-out: Percent Growth Inhibition, COL GOS.
For another assay, the system named is Erysiphe graminis. Description: Powdery mildew of barley, systemic root uptake (BMS). The assay is classed as in vivo. As to conditions: 45 ml of 250 mg/l, 8 days after inoculation. A digest of the protocol: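 Pot soil of barley (BMS) and cucumber (CMS) plants was drenched with 45 ml of a 250 mg/l acetone/Tween 20 aqueous emulsion, with untreated plants as controls. Disease was scored on a rating scale that included intermediate grades.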

Description for Pythium ultimum: (§1) Filter paper discs, each 11 mm. in diameter, were dipped in each of the test solutions. The discs were allowed to air dry to drive off the acetone solvent. A number of untreated discs were used as controls.
(§2) The treated and untreated discs were then placed on agar plates and one of the following fungus species: Septoria nodorum (SEP NOD), Botrytis cinerea (BOT CIN), Fusarium oxysporum (FUS OXY), Pythium ultimum (PYT ULT), Rhizoctonia solani (RHI SOL), Colletotrichum gossypii (COL GOS), and Scierotinia minor (SCL MIN), was added to the center of each disc in the form of a culture plug with the fungus mat in contact with the paper of the test disc. Cercosporidium personatum (CER PER), was added to discs as a spore suspension (20,000 spores/ml) to the disc (two drops of spore suspension per disc), rather than a mycelial culture plug. The plates were then incubated at 29° C. in an oven.
(§3) With the exception of the discs containing Cercosporidium personatum, the discs were evaluated by first measuring the radius from the center of the fungus colony on the treated discs and on the untreated discs. Percent growth inhibition of each of the compounds tested was determined as a function of the difference between the radius of the fungus colony on the treated disc versus the radius of the fungus colony on the untreated disc.
Description for Scierotinia minor: as §1, §2, §3

One may read the inhibition as the percentage by which the read-out fell short of the control. In the case of `CCCC(C#N)(CCc1ccccc1F)c1cccnc1` (stereo not drawn) [Compound 75], the inhibition at 500 µg/mL with Scierotinia minor worked out at 92%; with Rhizoctonia solani, 100%; in the assay on Pythium ultimum it was 1%; with Colletotrichum gossypii it was 100%. Also, the pest or weed control at 1000 µg/mL in the assay with Erysiphe polygoni worked out at 100%; in the assay with Helminthosporium sativum it was 92%; in the assay on Pyricularia oryzae, 0%. Further, the “Percent Reduction of Disease, BMS” value in the assay with Erysiphe graminis is given as 100%.
For `CCCCC(C#N)(CCCc1ccc(OC)cc1)c1cccnc1` (stereo not drawn) [Compound 76], the inhibition at 500 µg/mL came to 100% with Scierotinia minor, 6% in the assay with Rhizoctonia solani, 0% with Pythium ultimum and 100% in the assay with Colletotrichum gossypii. Besides, the pest or weed control at 1000 µg/mL came out at 100% in the assay with Erysiphe polygoni, 100% in the assay with Helminthosporium sativum and 0% in the assay with Pyricularia oryzae. Moreover, the “Percent Reduction of Disease, BMS” value with Erysiphe graminis is given as 0%.
For the compound `N#CC(CCc1ccc(F)cc1)(CCC(F)(F)F)c1cccnc1` (stereo not drawn) [Compound 77], the inhibition at 500 µg/mL in the assay on Scierotinia minor worked out at 40%; in the assay on Rhizoctonia solani it was 40%; in the assay with Pythium ultimum, 30%; in the assay with Colletotrichum gossypii it was 15%. Also, the pest or weed control at 1000 µg/mL was found to be 100% in the assay on Erysiphe polygoni, 90% in the assay on Helminthosporium sativum and 35% in the assay with Pyricularia oryzae. Besides, in the assay on Erysiphe graminis, the “Percent Reduction of Disease, BMS” value is on record as 100%.
As for `N#CC(CCCC(F)(F)F)(CCc1ccc(F)cc1)c1cccnc1` (stereo not drawn) [Compound 78], the inhibition at 500 µg/mL with Scierotinia minor was 20%; with Rhizoctonia solani, 0%; in the assay on Pythium ultimum it was 0%; with Colletotrichum gossypii, 50%. Moreover, the pest or weed control at 1000 µg/mL stood at 92% in the assay on Erysiphe polygoni, 83% with Helminthosporium sativum and 100% in the assay with Pyricularia oryzae. The “Percent Reduction of Disease, BMS” value in the assay with Erysiphe graminis was 100%.
As for `Cc1ccc(CCC(C#N)(CCCC(F)(F)F)c2cccnc2)cc1` (stereo not drawn) [Compound 79], the inhibition at 500 µg/mL with Scierotinia minor turned out to be 5%; with Rhizoctonia solani, 35%; in the assay with Pythium ultimum, 0%; in the assay with Colletotrichum gossypii, 30%. Besides, the pest or weed control at 1000 µg/mL with Erysiphe polygoni came to 100%; with Helminthosporium sativum, 100%; with Pyricularia oryzae, 11%. In the assay with Erysiphe graminis, the “Percent Reduction of Disease, BMS” value amounted to 92%.
As for `Cc1ccc(CCC(C#N)(CCC(F)(F)F)c2cccnc2)cc1` (stereo not drawn) [Compound 80], the inhibition at 500 µg/mL in the assay with Scierotinia minor worked out at 5%; with Rhizoctonia solani, 62%; in the assay with Pythium ultimum, 7%; in the assay with Colletotrichum gossypii, 59%. The results for the pest or weed control at 1000 µg/mL in the assay with Erysiphe polygoni, in the assay with Helminthosporium sativum and with Pyricularia oryzae were 100%, 100% and 78%, respectively. For the same compound, the “Percent Reduction of Disease, BMS” value in the assay with Erysiphe graminis stood at 100%.
